The conditions of data set [1]: aerosolized / nebulized; cited from earlier work.
The test system of data set [2] is CuFi-1 (ΔF508/ΔF508) epithelia. The data set can be described thus: ASL cation concentrations by ICP-MS. Type of data set: cell-based, human. The following applies: AmB 2 μM, 48 h, vs FC-72 vehicle. On the procedure: Small diameter CuFi-1 cultured epithelia were used for this experiment (0.33 cm^2). 24 hours prior to the start of experiment, the apical side of all cultured epithelia was rinsed three times with 200 μL warm PBS to remove excess mucus. Fresh USG media was added to the basolateral membrane. CuFi-1 epithelia were treated with either perfluorocarbon (FC-72) vehicle or 2 μM AmB suspended in FC-72, and incubated at 37° C. for 48 hours. 0.1 μL capacity microcapillary tubes (Drummond Scientific NC1453214) were placed into 200 μL pipette tips (Denville Scientific P1122). 48 hours after AmB addition, the microcapillary tubes were gently touched around the edge of the apical membrane of each epithelial culture insert until completely filled with ASL via capillary action. […] The sample was then quantitatively transferred to a 15 mL capacity conical vial by washing 3 times with 50 μL molecular biology grade water.
Quantification of sodium, magnesium, potassium, and calcium was accomplished using inductively coupled plasma mass spectrometry (ICP-MS) of acidified samples. […] Quantitative standards were made using a mixed Na, Mg, K, and Ca standard at 100 μg/mL of each element (Inorganic Ventures, Christiansburg, VA, USA) which were combined to create a 100 ng/mL mixed element standard in 1.0% nitric acid (v/v). […]

For a further data set, the system named is yeast. The note with it: cited from earlier work.
The nature of data set [3]: Na+, K+, Cl-, H+ efflux from liposomes. The format is biochemical. The following applies: 1:1000 AmB:lipid, vs DMSO vehicle. As to the method:
Palmitoyl oleoyl phosphatidylcholine (POPC) was obtained as a 25 mg/mL solution in CHCl3 from Avanti Polar Lipids (Alabaster, AL) and was stored at −20° C. under an atmosphere of dry argon and used within 3 months. Cholesterol (Sigma Aldrich) was purified by recrystallization from ethanol. NaH^13CO3 was obtained as a white solid from Sigma Aldrich. Sodium, potassium, and chloride measurements were obtained using a Denver Instruments (Denver, CO) Model 225 pH meter equipped with the appropriate ion selective probe inside a Faraday cage. Sodium selective measurements were obtained using an Orion micro sodium electrode (Thermo 9811BN). Potassium selective measurements were obtained with an Orion Potassium Sure-Flow Combination Electrode with Waterproof BNC connector (Thermo 9719BNWP). Chloride selective measurements were obtained using an Orion combination chloride electrode (Thermo 9617BNWP). For sodium efflux experiments, measurements were made on 1.5 mL solutions that were magnetically stirred in 7 mL vials incubated at 23° C. […]
Prior to preparing a lipid film, this solution was warmed to ambient temperature to prevent condensation from contaminating the solution and degrading the lipid film. […] To obtain a sufficient quantity of large unilamellar vesicles (LUVs), at least two independent lipid film preparations were pooled together for the subsequent formation of LUVs. […]

In data set [4] the test system is CuFi-1 (ΔF508/ΔF508) epithelia. The data set can be described thus: Basolateral to apical H14CO3- transport. The following applies: AmB 2 μM basolateral. Type of data set: cell-based, human.
Data set [5] in a line: 13C NMR H13CO3- efflux from liposomes. The following applies: 1:1,000 AmB:lipid, vs DMSO or water vehicle. The format is biochemical.

“Also recorded” adds a separate entry of the source.

As for `C[C@@H]1[C@H](O)[C@@H](C)/C=C/C=C/C=C/C=C/C=C/C=C/C=C/[C@H](O[C@@H]2O[C@H](C)[C@@H](O)[C@H](N)[C@@H]2O)C[C@@H]2O[C@](O)(C[C@@H](O)C[C@@H](O)[C@H](O)CC[C@@H](O)C[C@@H](O)CC(=O)O[C@H]1C)C[C@H](O)[C@H]2C(=O)O` [AmB, amphotericin B], the “safety of delivery to the lungs” value in data set [1] was “safely delivered to the lungs in aerosolized form”. Besides, in data set [2], the ASL cation concentrations result is “unchanged as compared to vehicle-treated controls; also recorded: do not alter major cation concentrations in the ASL”. The “toxicity / fungicidal activity to yeast” value in the data set with yeast is recorded as “highly toxic to yeast”. In data set [3], the “transport of potassium, sodium, chloride, protons across a lipid membrane” value was “known to transport monovalent anions and cations; also recorded: can transport potassium, sodium, chloride, protons and HCO3^−”. Further, the “basolateral to apical H^14CO3^− transport, basolateral addition of AmB” value in data set [4] is “did not; also recorded: caused no increase ASL ^14C bicarbonate; also recorded: did not raise ASL pH or increase H^14CO3^− secretion”. In data set [5], the “H^13CO3^− efflux from liposomes” value is “AmB is able to facilitate transmembrane bicarbonate efflux; also recorded: Robust and rapid release; also recorded: caused H^13CO3^− efflux; also recorded: AmB is able to facilitate HCO3^− efflux”.
